Measured values as given in article PMC8330100, “Similarities and differences in the localization, trafficking, and function of P-glycoprotein in MDR1-EGFP-transduced rat versus human brain capillary endothelial cell lines” (Fluids and Barriers of the CNS, 2021).

Legend:
[1] = tested on: Pgp in primary rBCEC monolayers; assay: Concentration equilibrium transport assay (CETA), primary rBCEC monolayers; format: in vitro ADME, rat; conditions: Rho123 2 µM; primary rBCECs
Description: For these experiments, a concentration equilibrium transport assay (CETA) was used, which is more sensitive to identify Pgp substrates than conventional bidirectional (concentration gradient) transport assays. In the CETA, the drug is added to both (apical and basolateral) sides of the monolayer, so that the initial drug concentration is the same in both compartments, thereby minimizing the effect of passive diffusion across the cell monolayer.
Additionally, vectorial drug transport across RBE4-MDR1-EGFP, hCMEC/D3-MDR1-EGFP, LLC-MDR1, and primary rBCEC monolayers was studied using 2 µM Rho123 as a fluorescent Pgp substrate essentially following the same protocol as described for [^3H]dLop. Transport was measured using a FLUOstar OPTIMA fluorescence reader (ex.: 485 nm, em.: 520 nm; BMG Labtech), analyzing samples from basolateral and apical compartments collected at the various time points.

Pgp in primary rBCECs = assay: Rhodamine 123 uptake/accumulation assay, primary rBCECs; format: cell-based, rat
Excerpt: The RBE4 and hCMEC/D3 cell lines used here are immortalized, which has the advantage that these cells are stable for several passages and may yield a large number of endothelial cells with the same genetic and phenotypical characteristics. The immortalization status, however, causes several alterations as compared to the native original cell type, including low junctional tightness of cell monolayers and reduced expression of efflux transporters such as Pgp. Therefore, for comparison with the MDR1-EGFP transduced rat RBE4 cells, experiments were also performed with primary cultured rat brain capillary endothelial cells (rBCECs). As described by us previously, rBCECs were prepared following a protocol by Régina et al. and Perrière et al. from 2 to 3 weeks old Wistar rats (obtained from Charles River; Sulzfeld, Germany). All animals were treated according to protocols evaluated and approved by the ethical committee of our university. In short, meninges were removed from cerebral cortices in phosphate-buffered saline (PBS) with 1% penicillin (100 U/mL)/streptomycin (100 μg/mL) (Biochrom AG) on ice. Subsequently, cortices were mechanically dissociated with scalpels. […]
The functionality of Pgp in RBE4-WT, RBE4-MDR1-EGFP, hCMEC/D3-WT, hCMEC/D3-MDR1-EGFP cells, and primary rBCECs was analyzed by measuring the uptake of the fluorescent Pgp substrate Rho123 (Sigma-Aldrich). […] Intracellular Rho123 concentration was determined by cell lysis in standard lysis buffer (25 mM Tris, 50 mM NaCl, 0.5% (w/v) sodium deoxycholate, 0.5% (w/v) Triton X-100) and measurement of fluorescence intensity with the FLUOstar OPTIMA (ex.: 485 nm, em.: 520 nm; BMG Labtech). Protein concentrations were determined using a BCA assay kit (Thermo Fisher Scientific). Rho123 uptake was obtained for each condition in triplicates and calculated as absolute fluorescence per mg protein. Additionally, Pgp functionality was expressed as multidrug resistance activity factor (MAF) as described by Huber et al.. […]

[2] = molecular target: Pgp in LLC-MDR1 monolayers (Homo sapiens, UniProt P08183); conditions: Rho123 2 µM
Chain of Pgp in LLC-MDR1 monolayers (P08183 whole entry): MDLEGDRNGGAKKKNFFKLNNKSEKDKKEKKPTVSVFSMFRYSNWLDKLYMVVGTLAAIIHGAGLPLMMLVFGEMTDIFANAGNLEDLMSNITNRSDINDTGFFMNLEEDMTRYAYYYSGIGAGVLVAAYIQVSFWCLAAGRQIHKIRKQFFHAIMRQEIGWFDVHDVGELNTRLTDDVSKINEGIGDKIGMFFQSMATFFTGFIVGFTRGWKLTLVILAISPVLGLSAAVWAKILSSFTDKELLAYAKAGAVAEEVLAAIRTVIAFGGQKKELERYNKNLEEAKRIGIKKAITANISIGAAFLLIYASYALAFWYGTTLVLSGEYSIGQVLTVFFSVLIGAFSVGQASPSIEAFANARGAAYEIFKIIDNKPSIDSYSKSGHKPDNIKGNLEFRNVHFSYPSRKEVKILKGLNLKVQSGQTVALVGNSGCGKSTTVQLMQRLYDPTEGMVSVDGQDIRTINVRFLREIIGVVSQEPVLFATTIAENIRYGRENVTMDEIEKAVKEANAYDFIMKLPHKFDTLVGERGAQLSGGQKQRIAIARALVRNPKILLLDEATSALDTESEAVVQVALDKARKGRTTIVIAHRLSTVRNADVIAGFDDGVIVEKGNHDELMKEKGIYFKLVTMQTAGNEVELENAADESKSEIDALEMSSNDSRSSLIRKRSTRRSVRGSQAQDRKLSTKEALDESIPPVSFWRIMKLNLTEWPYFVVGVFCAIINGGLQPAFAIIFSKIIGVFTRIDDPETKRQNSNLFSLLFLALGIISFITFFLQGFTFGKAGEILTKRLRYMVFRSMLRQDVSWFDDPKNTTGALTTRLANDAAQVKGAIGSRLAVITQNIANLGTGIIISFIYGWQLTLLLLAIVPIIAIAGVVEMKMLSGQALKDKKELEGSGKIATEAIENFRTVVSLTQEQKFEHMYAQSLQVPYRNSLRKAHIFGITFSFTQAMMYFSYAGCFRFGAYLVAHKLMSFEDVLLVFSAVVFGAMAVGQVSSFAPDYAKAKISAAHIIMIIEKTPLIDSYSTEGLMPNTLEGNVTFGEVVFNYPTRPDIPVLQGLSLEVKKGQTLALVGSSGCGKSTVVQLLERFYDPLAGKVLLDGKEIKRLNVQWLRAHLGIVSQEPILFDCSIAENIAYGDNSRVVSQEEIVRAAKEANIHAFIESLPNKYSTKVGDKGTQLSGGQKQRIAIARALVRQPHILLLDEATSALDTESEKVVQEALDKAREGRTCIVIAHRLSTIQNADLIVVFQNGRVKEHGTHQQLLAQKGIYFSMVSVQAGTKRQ

**Q.** Which results are given for `COC(=O)c1ccccc1-c1c2ccc(=N)cc-2oc2cc(N)ccc12` [Rho123, rhodamine 123]?
**A.** vectorial transport in CETA (apical vs basolateral concentrations) [1]: significantly higher in the apical vs. basolateral chambers; intracellular Rho123 accumulation (Pgp in primary rBCECs; Rho123 5 µM, 2 h, without tariquidar): 56,482 ± 2456 absolute fluorescence per mg p; multidrug resistance activity factor (MAF) from intracellular Rho123 accumulation (Pgp in primary rBCECs; with vs without tariquidar 0.5 µM): 61.2% ± 2.7; vectorial transport in CETA [2]: significant vectorial transport was observed
